From patent US10101331B2, “Methods of evaluating patients using E-cadherin or vimentin” (AGIOS PHARMACEUTICALS, INC, priority 2012, dated 2018) come the findings set out here.

This test deals with NCI-H358 cell line. Kind of test: TGFβ treatment of NCI-H358, western blot phenotype. It is filed as cell-based. The procedure:
FIG. 4A depicts a western blot analysis of the non-small cell lung cancer cell line NCI-H358 for protein levels of E-cadherin, vimentin, PC ([…]), GLS (phosphate activated glutaminase), and actin (control).
In order to better understand the contribution of mesenchymal versus epithelial phenotype to GLS dependence, the NCI-H358 cell line was treated with TGFβ and the phenotype assayed.
(In general: Immunoblotting shows a protein as a band on a membrane.)

As to “TGFβ: TGFβ used to induce EMT in the NCI-H358 cell line”, the “phenotype after TGFβ treatment” value (E-cadherin/vimentin expression) is “shift to a mesenchymal phenotype”. Also, the “increase in GAC protein levels in the mesenchymal variant” value (TGFβ induced EMT) is on record as 2 fold.
